# Assay results reported in PubChem BioAssay (NCI).
#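 These data come from cells grown in 96-well plates and exposed to compound for 48 hours at five concentrations. TGI marks complete inhibition of growth.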
# What was measured:
# Assay in all cases: growth of human tumour cells (NCI), 48 h
# IGROV1 ovarian = test system: IGROV1 ovarian
# SW-620 colon = test system: SW-620 colon
# MALME-3M melanoma = test system: MALME-3M melanoma
# NCI-H23 lung = test system: NCI-H23 lung
# SK-MEL-28 melanoma = test system: SK-MEL-28 melanoma
# HCC-2998 colon = test system: HCC-2998 colon
# RXF 393 renal = test system: RXF 393 renal
# HCT-116 colon = test system: HCT-116 colon
# SF-539 CNS = test system: SF-539 CNS
# A498 renal = test system: A498 renal
# UO-31 renal = test system: UO-31 renal
# EKVX NSCLC = test system: EKVX NSCLC
# HOP-18 NSCLC = test system: HOP-18 NSCLC
# A549 NSCLC = test system: A549 NSCLC
# SK-MEL-5 melanoma = test system: SK-MEL-5 melanoma
# OVCAR-8 ovarian = test system: OVCAR-8 ovarian
# HOP-92 NSCLC = test system: HOP-92 NSCLC
# SNB-78 CNS = test system: SNB-78 CNS
# LOX IMVI melanoma = test system: LOX IMVI melanoma
# KM12 colon = test system: KM12 colon
# MOLT-4 leukemia = test system: MOLT-4 leukemia
# 786-0 renal = test system: 786-0 renal
# NCI-H522 lung = test system: NCI-H522 lung
# UACC-257 melanoma = test system: UACC-257 melanoma
# SF-268 CNS = test system: SF-268 CNS
# ACHN renal = test system: ACHN renal
# LXFL 529 NSCLC = test system: LXFL 529 NSCLC
# KM20L2 colon = test system: KM20L2 colon
# OVCAR-5 ovarian = test system: OVCAR-5 ovarian
# UACC-62 melanoma = test system: UACC-62 melanoma
# OVCAR-3 ovarian = test system: OVCAR-3 ovarian
# NCI-H460 lung = test system: NCI-H460 lung
# TK-10 renal = test system: TK-10 renal
# HCT-15 colon = test system: HCT-15 colon
# SK-MEL-2 melanoma = test system: SK-MEL-2 melanoma
# SK-OV-3 ovarian = test system: SK-OV-3 ovarian
# NCI-H226 lung = test system: NCI-H226 lung
# U251 CNS = test system: U251 CNS
# OVCAR-4 ovarian = test system: OVCAR-4 ovarian
# SNB-75 CNS = test system: SNB-75 CNS
# DMS 114 small cell lung = test system: DMS 114 small cell lung
# CCRF-CEM leukemia = test system: CCRF-CEM leukemia
# SNB-19 CNS = test system: SNB-19 CNS
# HL-60(TB) leukemia = test system: HL-60(TB) leukemia
# K-562 leukemia = test system: K-562 leukemia
# DLD-1 colon = test system: DLD-1 colon
# HT29 colon = test system: HT29 colon
# HOP-62 NSCLC = test system: HOP-62 NSCLC
# SN12C renal = test system: SN12C renal
# M19-MEL melanoma = test system: M19-MEL melanoma
# RPMI-8226 leukemia = test system: RPMI-8226 leukemia
# M14 melanoma = test system: M14 melanoma
# COLO 205 colon = test system: COLO 205 colon
# DMS 273 small cell lung = test system: DMS 273 small cell lung
# SF-295 CNS = test system: SF-295 CNS
# CAKI-1 renal = test system: CAKI-1 renal
compound,measurement,setting,value
CC12CCC3(C1)[C@H](CC2=O)C[C@@H](OC(=O)c1ccccc1)C1C(C)(CO)CCC[C@@]13C (stereo partly specified),TGI,IGROV1 ovarian,> 100 µM
same,TGI,SW-620 colon,> 100 µM
same,TGI,MALME-3M melanoma,> 100 µM
same,TGI,NCI-H23 lung,> 100 µM
same,TGI,SK-MEL-28 melanoma,> 100 µM
same,TGI,HCC-2998 colon,> 100 µM
same,TGI,RXF 393 renal,47.6 µM
same,TGI,HCT-116 colon,> 100 µM
same,TGI,SF-539 CNS,> 100 µM
same,TGI,A498 renal,> 100 µM
same,TGI,UO-31 renal,61.7 µM
same,TGI,EKVX NSCLC,> 100 µM
same,TGI,HOP-18 NSCLC,> 100 µM
same,TGI,A549 NSCLC,97 µM
same,TGI,SK-MEL-5 melanoma,1.71 µM
same,TGI,OVCAR-8 ovarian,> 100 µM
same,TGI,HOP-92 NSCLC,58.3 µM
same,TGI,SNB-78 CNS,> 100 µM
same,TGI,LOX IMVI melanoma,> 100 µM
same,TGI,KM12 colon,> 100 µM
same,TGI,MOLT-4 leukemia,19.7 µM
same,TGI,786-0 renal,> 100 µM
same,TGI,NCI-H522 lung,17.9 µM
same,TGI,UACC-257 melanoma,23.8 µM
same,TGI,SF-268 CNS,> 100 µM
same,TGI,ACHN renal,> 100 µM
same,TGI,LXFL 529 NSCLC,> 100 µM
same,TGI,KM20L2 colon,> 100 µM
same,TGI,OVCAR-5 ovarian,95.7 µM
same,TGI,UACC-62 melanoma,> 89 µM
same,TGI,OVCAR-3 ovarian,> 52.3 µM
same,TGI,NCI-H460 lung,> 45.8 µM
same,TGI,TK-10 renal,> 100 µM
same,TGI,HCT-15 colon,> 100 µM
same,TGI,SK-MEL-2 melanoma,> 90.8 µM
same,TGI,SK-OV-3 ovarian,> 89.1 µM
same,TGI,NCI-H226 lung,65.9 µM
same,TGI,U251 CNS,> 100 µM
same,TGI,OVCAR-4 ovarian,> 72.1 µM
same,TGI,SNB-75 CNS,> 100 µM
same,TGI,DMS 114 small cell lung,19.5 µM
same,TGI,CCRF-CEM leukemia,> 54.1 µM
same,TGI,SNB-19 CNS,> 100 µM
same,TGI,HL-60(TB) leukemia,8.38 µM
same,TGI,K-562 leukemia,> 100 µM
same,TGI,DLD-1 colon,> 100 µM
same,TGI,HT29 colon,> 100 µM
same,TGI,HOP-62 NSCLC,> 100 µM
same,TGI,SN12C renal,> 100 µM
same,TGI,M19-MEL melanoma,> 100 µM
same,TGI,RPMI-8226 leukemia,12 µM
same,TGI,M14 melanoma,> 100 µM
same,TGI,COLO 205 colon,27.1 µM
same,TGI,DMS 273 small cell lung,13.3 µM
same,TGI,SF-295 CNS,> 38.9 µM
same,TGI,CAKI-1 renal,> 27.2 µM
